Cc1cnc(NC(=O)C2=C(O)c3ccccc3S(=O)(=O)N2C)s1
solubility (mole fraction)
Details	293.15 K	298.15 K	303.15 K	308.15 K	313.15 K
in ethanol	4.47e-05	5.67e-05	7.52e-05	9.37e-05	0.000123
in ethyl acetate	0.000389	0.000453	0.00053	0.000607	0.000707

From BigSolDB 2.1
